Among the data in patent US20140171431A1, “AZOLE HETEROCYCLIC COMPOUND, PREPARATION METHOD, PHARMACEUTICAL COMPOSITION AND USE” (priority 2011, published 2014) are inhibition values, retold here.

Molecules are shown by their SMILES.

The experiment concerns the target T1, Lp-PLA2 in rabbit serum (Oryctolagus cuniculus, UniProt G1SE06).
T1 construct: from tissue; host or cells: rabbit serum
T1 sequence (G1SE06 22-423): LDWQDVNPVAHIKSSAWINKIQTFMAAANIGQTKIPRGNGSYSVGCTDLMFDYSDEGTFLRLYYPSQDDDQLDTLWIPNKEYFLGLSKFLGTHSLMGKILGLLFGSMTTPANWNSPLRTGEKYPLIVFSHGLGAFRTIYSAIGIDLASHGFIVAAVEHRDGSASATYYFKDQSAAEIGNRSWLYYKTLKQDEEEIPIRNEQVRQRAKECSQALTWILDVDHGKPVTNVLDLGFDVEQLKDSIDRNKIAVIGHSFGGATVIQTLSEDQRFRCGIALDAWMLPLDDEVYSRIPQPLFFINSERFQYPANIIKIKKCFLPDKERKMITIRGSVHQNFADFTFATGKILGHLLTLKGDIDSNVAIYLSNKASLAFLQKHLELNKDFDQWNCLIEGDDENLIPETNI
Briefly: In vitro inhibitory activity towards the enzyme Lp-PLA2 in rabbit serum, [3H]PAF substrate. The experiment is classed as biochemical. As to conditions: rabbit serum; for inhibition at 0.1 µM: 100 nM, read-out: inhibition, %. How it is done:
The activities of compounds were measured using [^3H] labeled platelet activating factor ([^3H]PAF, Perkinelmer, Lot NET910) as the substrate. The reaction was carried out in a system containing 50 mmol/L HEPES and 150 mmol/L NaCl (pH 7.4) in a total volume of 200 μl. First, 10 μL rabbit serum and 10 μl DMSO solution of the test compound were added to the system and preincubated for 10 min at 37° C. Then 20 nM [^3H]PAF was added as listed in table 1 to start the reaction and incubated for a further 10 min at 37° C. After that, 600 μl of CHCl3/MeOH (2:1) was added and the resulting mixture was vortex mixed and the reaction was stopped. After settled for a while, the mixture was centrifugated at 12000×g for 15 min. The supernatant was transferred to a new tube and 200 μl of CHCl3 was added. The mixture was mixed by vortexing and then settled or centrifugated for 2 min. A 100 μl portion of the supernatant was then collected for radioactivity intensity measurement.
The inhibition rate was determined by the following equation:
Inhibitory rate (%)=1−(DPMcompound tube−DPMblank tube)/(DPMcontrol tube−DPMblank tube)*100%
(Note: DPM is radioactivity intensity unit.)

The inhibition is the drop in the measured response relative to a control, in per cent. The compound `CCCCCCCC1NC(Cn2c(SCc3ccc(F)cc3)nc(=O)c3c2CCC3)=NO1` (stereo not shown) [Example 1, 2-(4-fluorobenzylthio)-1-((5-n-heptyl-4,5-dihydro-1,2,4-oxadiazol-3-yl)methyl)-6,7-dihydro-1H-cyclopenta[d]pyrimidin-4(5H)-one] displayed an inhibition at 1 µM of 10% and an inhibition at 10 µM of 62.6%. Consider `CCCCCCCCCCC1NC(Cn2c(SCc3ccc(F)cc3)nc(=O)c3c2CCC3)=NO1` (stereo not shown) [Example 2, 1-((5-n-decyl-4,5-dihydro-1,2,4-oxadiazol-3-yl)methyl)-2-(4-fluorobenzylthio)-6,7-dihydro-1H-cyclopenta[d]pyrimidin-4(5H)-one], for which testing at 1 µM gave an inhibition of 26.6% and 10 µM produced 82.7% inhibition. In turn, `CCCCCCCC1NC(Cn2c(SCc3ccc(F)cc3)cc(=O)c3ccccc32)=NO1` (stereo not shown) [Example 3, 2-(4-fluorobenzylthio)-1-((5-n-heptyl-4,5-dihydro-1,2,4-oxadiazol-3-yl)methyl)quinolin-4(1H)-one] gave an inhibition at 10 µM of 12.5%. The compound `CCCC1NC(Cn2c(SCc3ccc(F)cc3)nc(=O)c3c2CCC3)=NO1` (stereo not shown) [Example 6, 2-(4-fluorobenzylthio)-1-((5-n-propyl-4,5-dihydro-1,2,4-oxadiazol-3-yl)methyl)-6,7-dihydro-1H-cyclo-penta[d]pyrimidin-4(5H)-one] returned an inhibition at 1 µM of 16.2% and an inhibition at 10 µM of 74%. `O=c1nc(SCc2ccc(F)cc2)n(CC2=NOC(c3ccc(-c4ccc(C(F)(F)F)cc4)cc3)N2)c2c1CCC2` (stereo not shown) [Example 7, 2-(4-fluorobenzylthio)-1-((5-(4′-(trifluoromethyl)biphen-yl-4-yl)-4,5-dihydro-1,2,4-oxadiazol-3-yl)methyl)-6,7-dihydro-1H-cyclo-penta[d]pyrimidin-4(5H)-one] displayed an inhibition at 1 µM of 25% and an inhibition at 10 µM of 60.3%. Turning to `CCCC/C=C/N1C(Cn2c(SCc3ccc(F)cc3)nc(=O)c3c2CCC3)=NOC1CCCCCCC` (stereo not shown) [Example 18, (E)-2-(4-fluorobenzylthio)-1-((5-n-heptyl-4-(n-hex-1-enyl)-4,5-dihydro-1,2,4-ox-adiazol-3-yl)methyl)-6,7-di-hydro-1H-cyclopenta[d]py-rimidin-4(5H)-one], the inhibition at 1 µM is 7.4% and 10 µM produced 41.9% inhibition.

The compound `O=c1nc(SCc2cccc(F)c2F)n(CC2=NOC(c3ccc(-c4ccc(C(F)(F)F)cc4)cc3)N2CCN2CCOCC2)c2c1CCC2` (stereo not shown) [Example 19, 2-(2,3-difluorobenzylthio)-1-((4-(2-morpholinoethyl)-5-(4′-(trifluoromethyl)biphenyl-4-yl)-4,5-dihydro-1,2,4-oxadiazol-3-yl)methyl)-6,7-dihydro-1H-cyclopenta[d]pyrimidin-4(5H)-one] gave an inhibition at 1 µM of 29% and an inhibition at 10 µM of 76.8%.

As to `O=c1nc(SCc2ccc(F)cc2)n(CC2=NOC(c3ccc(-c4ccc(C(F)(F)F)cc4)cc3)N2CCN2CCCCC2)c2c1CCC2` (stereo not shown) [Example 20, 2-(4-fluorobenzylthio)-1-((4-(2-(piperidin-1-yl)ethyl)-5-(4′-(trifluoromethyl)biphenyl-4-yl)-4,5-dihydro-1,2,4-oxadiazol-3-yl)methyl)-6,7-dihydro-1H-cyclopenta[d]pyrimidin-4(5H)-one], the inhibition at 1 µM worked out at 31% and the inhibition at 10 µM stood at 86.6%. `CCOC(=O)N1CCC(N2C(Cn3c(SCc4cccc(F)c4F)nc(=O)c4c3CCC4)=NOC2c2ccc(-c3ccc(C(F)(F)F)cc3)cc2)CC1` (stereo not shown) [Example 21, ethyl 4-(3-((2-(2,3-difluorobenzylthio)-4-oxo-4,5,6,7-tetrahydro-1H-cyclopenta[d]pyrimidin-1-yl)methyl)-5-(4′-(trifluoromethyl)biphenyl-4-yl)-1,2,4-oxadiazol-4(5H)-yl)piperidine-1-carboxylate] displayed an inhibition at 10 µM of 51.2%. `CCOC(=O)N1CCC(N2C(Cn3c(SCc4ccc(F)cc4)nc(=O)c4c3CCC4)=NOC2c2ccc(-c3ccc(C(F)(F)F)cc3)cc2)CC1` (stereo not shown) [Example 22] registered an inhibition at 10 µM of 63%. In the case of `O=c1nc(SCc2cccc(F)c2F)n(CC2=NOC(c3ccc(-c4ccc(C(F)(F)F)cc4)cc3)N2CCN2CCCCC2)c2c1CCC2` (stereo not shown) [Example 23, 2-(2,3-difluorobenzylthio)-1-((4-(2-(piperidin-1-yl)ethyl)-5-(4′-(trifluoromethyl)biphenyl-4-yl)-4,5-dihydro-1,2,4-oxadiazol-3-yl)methyl)-6,7-dihydro-1H-cyclopenta[d]pyrimidin-4(5H)-one], 1 µM produced 33% inhibition and the inhibition at 10 µM was found to be 82.4%. The like results for `CCN(CC)CCN1C(Cn2c(SCc3ccc(F)cc3)nc(=O)c3c2CCC3)=NOC1c1ccc(-c2ccc(C(F)(F)F)cc2)cc1` (stereo not shown) [Example 24, 1-((4-(2-(diethylamino)eth-yl)-5-(4′-(trifluorometh-yl)biphenyl-4-yl)-4,5-di-hydro-1,2,4-oxadiazol-3-yl)methyl)-2-(4-fluorobenzyl-thio)-6,7-dihydro-1H-cyclopenta[d]pyrimidin-4(5H)-one] were, in that order, 16.3% and 78.5%. The like results for `O=c1nc(SCc2ccc(F)cc2)n(CC2=NOC(c3ccc(-c4ccc(C(F)(F)F)cc4)cc3)N2CCN2CCOCC2)c2c1CCC2` (stereo not shown) [Example 25, 2-(4-fluorobenzylthio)-1-((4-(2-morpholinoethyl)-5-(4′-(trifluoromethyl)bi-phenyl-4-yl)-4,5-dihydro-1,2,4-oxadiazol-3-yl)meth-yl)-6,7-dihydro-1H-cy-clopenta[d]pyrimidin-4(5H)-one] were, in that order, 23% and 74.3%.

In the case of `O=c1nc(SCc2ccc(F)cc2)n(Cc2ncc(-c3ccccc3)[nH]2)c2c1CCC2` [Example 26, 2-(4-fluorobenzylthio)-1-((5-phenyl-1H-imidazol-2-yl)methyl)-6,7-dihydro-1H-cyclopenta[d]pyrimidin-4(5H)-one], the inhibition at 10 µM came to 7.4%.

Consider `Cn1cc(Cc2cn(Cc3nccn3Cc3ccc(-c4ccc(C(F)(F)F)cc4)cc3)c(SCc3ccc(F)cc3)nc2=O)cn1` [Example 29, 2-(4-fluorobenzylthio)-5-((1-methyl-1H-pyrazol-4-yl)methyl)-1-((1-((4′-(trifluoromethyl)biphenyl-4-yl)methyl)-1H-imidazol-2-yl)methyl)pyrimidin-4(1H)-one], for which the inhibition at 0.1 µM was 12.6% and the inhibition at 1 µM is 64.9%. The compound `CCCCCCCCCCCCn1ccnc1Cn1c(SCc2ccc(F)cc2)nc(=O)c2c1CCC2` [Example 30, 1-((1-n-dodecyl-1H-imidazol-2-yl)methyl)-2-(4-fluorobenzylthio)-6,7-dihydro-1H-cyclopenta[d]pyrimidin-4(5H)-one] yielded an inhibition at 1 µM of 42.3% and an inhibition at 10 µM of 87.5%.

As for `O=c1nc(SCc2ccc(F)cc2)n(Cc2nccn2Cc2ccc(-c3ccc(Cl)cc3)cc2)c2c1CCC2` [Example 32, 1-((1-((4′-chlorobiphenyl-4-yl)methyl)-1H-imidazol-2-yl)methyl)-2-(4-fluorobenzylthio)-6,7-dihydro-1H-cyclopenta[d]pyrimidin-4(5H)-one], the inhibition at 0.1 µM came to 2.1% and the inhibition at 1 µM came to 50%.

In turn, `Cc1ccc(-c2ccc(Cn3ccnc3Cn3cc(Cc4cnn(C)c4)c(=O)nc3SCc3ccc(F)cc3)cc2)cc1` [Example 34, 2-(4-fluorobenzylthio)-5-((1-methyl-1H-pyrazol-4-yl)methyl)-1-((1-((4′-methylbiphenyl-4-yl)methyl)-1H-imidazol-2-yl)methyl)pyrimidin-4(1H)-one] registered an inhibition at 1 µM of 14.6%.
